For orientation: inhibition means the change of the read-out against control, counted positive when it falls. The term Inhibition denotes the share of the control response that was lost under treatment. A lower Inhibition goes with little suppression.

Like-named read-outs stand apart in the source and are kept apart here.

The target in one experiment is T1, AurA (Homo sapiens, UniProt O14965).
T1 sequence (O14965 1-403): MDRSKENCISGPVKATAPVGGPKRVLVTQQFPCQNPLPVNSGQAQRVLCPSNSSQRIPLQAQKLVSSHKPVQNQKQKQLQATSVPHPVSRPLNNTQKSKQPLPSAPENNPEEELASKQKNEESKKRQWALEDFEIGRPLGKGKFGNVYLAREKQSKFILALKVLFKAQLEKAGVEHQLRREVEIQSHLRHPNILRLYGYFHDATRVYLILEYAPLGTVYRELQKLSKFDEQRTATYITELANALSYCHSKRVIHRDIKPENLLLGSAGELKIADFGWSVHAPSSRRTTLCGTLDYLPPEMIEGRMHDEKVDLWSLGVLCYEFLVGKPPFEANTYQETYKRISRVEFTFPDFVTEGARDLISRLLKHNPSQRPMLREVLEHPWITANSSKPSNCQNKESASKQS
Put plainly: KiNativ, MOLM13 live cells. The settings on record: MOLM-13, 2 h, 100 nM. The experiment is classed as cell-based. Here is the method:
(§1) Samples were analyzed by KiNativ in situ kinase profiling by ActivX Biosciences.

Another experiment has as its target DNAPK (Homo sapiens, UniProt P78527). Put plainly: KiNativ, MOLM13 live cells. The following applies: MOLM-13, 2 h, 100 nM, ATP, read-out: Inhibition vs DMSO. The experiment is classed as cell-based. Here is the method: as §1
The target of the next experiment is Erk1 (Homo sapiens, UniProt P27361). Put plainly: KiNativ, MOLM13 live cells. The experiment is classed as cell-based. The following applies: MOLM-13; 100 nM, 2 hours; Lys2; read-out: Inhibition vs DMSO. Here is the method:
as §1

A further experiment addresses T2, GCN2 domain2 (Homo sapiens, UniProt Q9P2K8).
T2 construct: GCN2 domain2
Put plainly: KiNativ, MOLM13 live cells. Type of experiment: cell-based. The following applies: MOLM-13, 2 h, 100 nM. The procedure: as §1

In another experiment the target is T3, ILK (Homo sapiens, UniProt Q13418).
T3 sequence (Q13418 1-452): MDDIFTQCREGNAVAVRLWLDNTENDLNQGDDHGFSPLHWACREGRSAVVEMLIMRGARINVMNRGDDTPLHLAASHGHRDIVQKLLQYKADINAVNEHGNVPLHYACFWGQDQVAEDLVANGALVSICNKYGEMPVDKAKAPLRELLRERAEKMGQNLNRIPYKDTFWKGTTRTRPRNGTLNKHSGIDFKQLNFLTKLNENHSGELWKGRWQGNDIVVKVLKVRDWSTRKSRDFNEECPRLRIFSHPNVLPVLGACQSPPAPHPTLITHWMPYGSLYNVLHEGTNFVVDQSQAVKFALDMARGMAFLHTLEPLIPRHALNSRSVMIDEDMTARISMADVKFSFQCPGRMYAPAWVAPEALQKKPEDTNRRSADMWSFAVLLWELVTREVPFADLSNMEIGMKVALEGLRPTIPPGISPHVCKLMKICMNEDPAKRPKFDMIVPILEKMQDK
Put plainly: KiNativ, MOLM13 live cells. Type of experiment: cell-based. The following applies: MOLM-13, 2 h, 100 nM. Here is the method: as §1

The next experiment deals with T4, JAK1 domain2 (Homo sapiens, UniProt P23458).
T4 construct: JAK1 domain2
Put plainly: KiNativ, MOLM13 live cells. The experiment is classed as cell-based. The settings on record: 100 nM, 2 hours. Here is the method:
as §1

The target of the next experiment is T5, LATS2 (Homo sapiens, UniProt Q9NRM7).
T5 sequence (Q9NRM7 1-1088): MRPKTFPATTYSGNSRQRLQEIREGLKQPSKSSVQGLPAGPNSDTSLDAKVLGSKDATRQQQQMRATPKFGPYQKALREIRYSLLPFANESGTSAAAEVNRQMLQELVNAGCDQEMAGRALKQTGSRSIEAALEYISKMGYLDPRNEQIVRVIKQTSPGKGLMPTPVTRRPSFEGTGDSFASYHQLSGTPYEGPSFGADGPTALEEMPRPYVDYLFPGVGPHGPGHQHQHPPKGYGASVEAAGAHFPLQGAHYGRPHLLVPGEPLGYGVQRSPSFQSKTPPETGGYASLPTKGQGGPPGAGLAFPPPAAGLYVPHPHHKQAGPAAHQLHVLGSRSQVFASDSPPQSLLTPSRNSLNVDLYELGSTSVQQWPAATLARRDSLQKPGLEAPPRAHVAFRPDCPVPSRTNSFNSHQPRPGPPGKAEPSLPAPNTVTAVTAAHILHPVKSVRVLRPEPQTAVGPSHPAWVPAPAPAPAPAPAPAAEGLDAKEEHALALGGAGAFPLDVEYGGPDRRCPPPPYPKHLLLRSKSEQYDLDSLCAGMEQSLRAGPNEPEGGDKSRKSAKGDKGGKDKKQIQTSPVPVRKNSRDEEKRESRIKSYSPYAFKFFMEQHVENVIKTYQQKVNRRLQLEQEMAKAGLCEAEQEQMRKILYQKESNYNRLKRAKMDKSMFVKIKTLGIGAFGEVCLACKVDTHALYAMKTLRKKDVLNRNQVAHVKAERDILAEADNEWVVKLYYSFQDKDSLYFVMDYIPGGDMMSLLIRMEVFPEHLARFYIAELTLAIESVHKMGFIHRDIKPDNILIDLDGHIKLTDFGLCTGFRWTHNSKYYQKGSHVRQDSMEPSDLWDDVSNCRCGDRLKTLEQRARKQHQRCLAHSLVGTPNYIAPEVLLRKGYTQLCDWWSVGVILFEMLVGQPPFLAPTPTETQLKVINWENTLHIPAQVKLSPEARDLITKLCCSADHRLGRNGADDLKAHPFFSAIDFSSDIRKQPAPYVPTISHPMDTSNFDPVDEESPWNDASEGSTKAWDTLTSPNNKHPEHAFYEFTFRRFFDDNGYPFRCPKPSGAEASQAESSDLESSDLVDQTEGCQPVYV
Put plainly: KiNativ, MOLM13 live cells. The settings on record: 100 nM, 2 hours. Type of experiment: cell-based. Here is the method:
as §1

In the next experiment the target is LKB1 (Homo sapiens, UniProt Q15831). Put plainly: KiNativ, MOLM13 live cells. The experiment is classed as cell-based. The settings on record: MOLM-13; 100 nM, 2 hours; Lys2; read-out: Inhibition vs DMSO. Here is the method:
as §1

For the next experiment, the target named is NEK7 (Homo sapiens, UniProt Q8TDX7). Put plainly: KiNativ, MOLM13 live cells. Type of experiment: cell-based. The settings on record: MOLM-13; 100 nM, 2 hours; Lys1; read-out: Inhibition vs DMSO. Here is the method: as §1
The next experiment concerns the target ZAK (Homo sapiens, UniProt Q9NYL2). Put plainly: KiNativ, MOLM13 live cells. The following applies: MOLM-13; 100 nM, 2 hours; Lys1; read-out: Inhibition vs DMSO. Type of experiment: cell-based. The procedure: as §1
In experiment [1] the test system is RSK1 domain1, RSK2 domain1, RSK3 domain1. Put plainly: KiNativ, MOLM13 live cells. The experiment is classed as cell-based, human. The settings on record: 100 nM, 2 hours; Lys2. Here is the method: as §1
Experiment [2] has as its system CaMK2a, CaMK2b, CaMK2d, CaMK2g. Put plainly: KiNativ, OCI cells live cell. Type of experiment: cell-based, human. The settings on record: labeling site Lys2, peptide DLKPENLLLASK
The next experiment concerns the target MAP3K1 (Homo sapiens, UniProt Q13233). Put plainly: KiNativ, OCI cells live cell. The experiment is classed as cell-based. The settings on record: 2 h, labeling site Lys2, peptide […].
The mark [3] stands for this setting: Lys1, read-out: Inhibition vs DMSO.
Setting [4] is: Lys2, read-out: Inhibition vs DMSO.

T4 sequence (P23458 whole entry, the tested form may be a part): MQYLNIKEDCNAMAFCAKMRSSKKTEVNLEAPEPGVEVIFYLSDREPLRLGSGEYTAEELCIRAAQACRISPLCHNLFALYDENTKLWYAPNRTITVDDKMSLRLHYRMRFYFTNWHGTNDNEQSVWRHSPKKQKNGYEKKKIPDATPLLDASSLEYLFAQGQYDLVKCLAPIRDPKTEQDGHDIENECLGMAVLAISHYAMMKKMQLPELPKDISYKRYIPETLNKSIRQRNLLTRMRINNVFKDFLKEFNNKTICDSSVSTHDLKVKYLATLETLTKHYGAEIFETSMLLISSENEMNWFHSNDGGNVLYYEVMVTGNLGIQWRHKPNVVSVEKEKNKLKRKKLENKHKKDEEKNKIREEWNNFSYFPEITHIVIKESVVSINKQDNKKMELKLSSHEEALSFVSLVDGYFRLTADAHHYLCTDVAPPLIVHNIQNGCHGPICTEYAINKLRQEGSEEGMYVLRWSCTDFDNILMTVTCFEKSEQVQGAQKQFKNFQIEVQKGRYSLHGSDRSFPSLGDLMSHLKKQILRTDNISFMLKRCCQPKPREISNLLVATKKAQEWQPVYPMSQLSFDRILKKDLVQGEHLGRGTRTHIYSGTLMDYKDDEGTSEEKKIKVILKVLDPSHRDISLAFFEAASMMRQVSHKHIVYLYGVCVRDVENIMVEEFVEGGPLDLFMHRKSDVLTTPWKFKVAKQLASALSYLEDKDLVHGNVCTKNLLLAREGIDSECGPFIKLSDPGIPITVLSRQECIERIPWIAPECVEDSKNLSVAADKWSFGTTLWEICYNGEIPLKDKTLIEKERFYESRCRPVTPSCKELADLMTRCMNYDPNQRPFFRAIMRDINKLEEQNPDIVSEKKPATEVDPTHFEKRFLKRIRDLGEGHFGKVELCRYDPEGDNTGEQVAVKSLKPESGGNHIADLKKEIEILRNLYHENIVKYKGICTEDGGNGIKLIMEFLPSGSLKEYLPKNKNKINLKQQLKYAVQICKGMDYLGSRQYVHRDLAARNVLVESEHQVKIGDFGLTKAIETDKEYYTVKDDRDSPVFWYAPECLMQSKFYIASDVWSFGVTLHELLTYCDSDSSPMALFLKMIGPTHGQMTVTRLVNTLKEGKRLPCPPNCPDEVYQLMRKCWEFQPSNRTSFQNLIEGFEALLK
T2 sequence (Q9P2K8 whole entry, the tested form may be a part): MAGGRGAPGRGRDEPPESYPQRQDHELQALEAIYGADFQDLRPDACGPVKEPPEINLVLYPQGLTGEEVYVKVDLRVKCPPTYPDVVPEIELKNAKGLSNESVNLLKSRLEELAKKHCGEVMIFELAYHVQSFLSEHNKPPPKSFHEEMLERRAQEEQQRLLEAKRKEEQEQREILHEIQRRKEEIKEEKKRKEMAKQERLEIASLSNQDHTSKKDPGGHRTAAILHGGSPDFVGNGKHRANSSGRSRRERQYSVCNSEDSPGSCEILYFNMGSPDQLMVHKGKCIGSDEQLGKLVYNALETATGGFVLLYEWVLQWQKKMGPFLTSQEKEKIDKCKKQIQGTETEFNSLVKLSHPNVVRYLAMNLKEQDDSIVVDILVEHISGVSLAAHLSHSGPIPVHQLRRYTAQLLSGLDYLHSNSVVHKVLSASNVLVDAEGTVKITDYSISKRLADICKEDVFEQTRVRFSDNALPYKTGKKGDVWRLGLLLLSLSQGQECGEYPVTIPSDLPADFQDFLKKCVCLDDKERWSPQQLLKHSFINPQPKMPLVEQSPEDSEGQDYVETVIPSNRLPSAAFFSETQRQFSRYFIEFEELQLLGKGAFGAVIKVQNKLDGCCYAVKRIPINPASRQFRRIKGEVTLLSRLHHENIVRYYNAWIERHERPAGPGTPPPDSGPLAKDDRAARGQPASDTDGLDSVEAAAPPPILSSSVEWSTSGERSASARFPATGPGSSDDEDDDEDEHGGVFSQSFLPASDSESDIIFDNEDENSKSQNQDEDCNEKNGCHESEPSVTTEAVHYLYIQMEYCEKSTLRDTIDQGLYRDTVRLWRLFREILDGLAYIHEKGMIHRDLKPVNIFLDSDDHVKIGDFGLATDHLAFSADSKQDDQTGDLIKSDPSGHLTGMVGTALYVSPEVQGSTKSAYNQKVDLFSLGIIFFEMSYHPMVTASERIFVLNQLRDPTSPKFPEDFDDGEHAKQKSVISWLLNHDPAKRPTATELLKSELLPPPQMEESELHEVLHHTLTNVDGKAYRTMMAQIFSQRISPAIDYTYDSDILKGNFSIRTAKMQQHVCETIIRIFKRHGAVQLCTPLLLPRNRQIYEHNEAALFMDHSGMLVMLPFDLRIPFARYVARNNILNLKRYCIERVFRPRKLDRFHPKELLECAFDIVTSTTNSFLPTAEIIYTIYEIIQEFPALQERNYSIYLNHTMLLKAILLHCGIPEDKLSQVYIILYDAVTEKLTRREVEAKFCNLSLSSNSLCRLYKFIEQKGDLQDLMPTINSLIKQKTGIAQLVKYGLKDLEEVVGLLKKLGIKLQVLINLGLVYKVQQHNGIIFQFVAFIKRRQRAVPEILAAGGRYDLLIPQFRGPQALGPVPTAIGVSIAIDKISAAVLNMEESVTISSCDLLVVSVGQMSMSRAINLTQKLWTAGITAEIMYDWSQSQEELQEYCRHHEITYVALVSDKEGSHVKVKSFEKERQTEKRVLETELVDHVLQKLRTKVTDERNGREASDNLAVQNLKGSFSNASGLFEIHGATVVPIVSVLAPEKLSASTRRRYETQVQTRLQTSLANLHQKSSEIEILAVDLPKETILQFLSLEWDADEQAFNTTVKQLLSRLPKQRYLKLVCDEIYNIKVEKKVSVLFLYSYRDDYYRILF
Chain of Erk1 (P27361 whole entry): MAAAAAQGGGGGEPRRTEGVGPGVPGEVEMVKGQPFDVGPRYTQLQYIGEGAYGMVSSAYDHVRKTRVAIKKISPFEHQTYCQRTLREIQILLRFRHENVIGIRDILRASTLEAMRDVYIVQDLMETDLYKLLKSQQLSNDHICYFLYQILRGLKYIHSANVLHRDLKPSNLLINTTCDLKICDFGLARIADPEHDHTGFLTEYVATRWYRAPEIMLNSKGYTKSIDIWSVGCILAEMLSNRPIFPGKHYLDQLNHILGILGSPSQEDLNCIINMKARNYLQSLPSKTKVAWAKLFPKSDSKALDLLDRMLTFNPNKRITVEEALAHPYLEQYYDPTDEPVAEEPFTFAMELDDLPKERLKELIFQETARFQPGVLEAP
Chain of LKB1 (Q15831 1-430 limits assumed): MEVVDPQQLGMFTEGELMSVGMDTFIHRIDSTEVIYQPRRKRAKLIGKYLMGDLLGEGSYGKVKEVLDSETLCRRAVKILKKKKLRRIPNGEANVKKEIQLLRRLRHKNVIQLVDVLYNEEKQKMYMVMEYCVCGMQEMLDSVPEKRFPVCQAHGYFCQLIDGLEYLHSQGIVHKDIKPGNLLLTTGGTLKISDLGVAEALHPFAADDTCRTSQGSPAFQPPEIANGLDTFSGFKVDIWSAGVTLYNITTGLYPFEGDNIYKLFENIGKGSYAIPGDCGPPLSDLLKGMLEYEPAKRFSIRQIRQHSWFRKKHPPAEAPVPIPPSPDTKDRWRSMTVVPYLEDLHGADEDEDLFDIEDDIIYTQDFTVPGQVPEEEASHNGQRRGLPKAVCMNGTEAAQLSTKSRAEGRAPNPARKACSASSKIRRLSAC
Chain of LKB1 (Q7RTN6 whole entry partner): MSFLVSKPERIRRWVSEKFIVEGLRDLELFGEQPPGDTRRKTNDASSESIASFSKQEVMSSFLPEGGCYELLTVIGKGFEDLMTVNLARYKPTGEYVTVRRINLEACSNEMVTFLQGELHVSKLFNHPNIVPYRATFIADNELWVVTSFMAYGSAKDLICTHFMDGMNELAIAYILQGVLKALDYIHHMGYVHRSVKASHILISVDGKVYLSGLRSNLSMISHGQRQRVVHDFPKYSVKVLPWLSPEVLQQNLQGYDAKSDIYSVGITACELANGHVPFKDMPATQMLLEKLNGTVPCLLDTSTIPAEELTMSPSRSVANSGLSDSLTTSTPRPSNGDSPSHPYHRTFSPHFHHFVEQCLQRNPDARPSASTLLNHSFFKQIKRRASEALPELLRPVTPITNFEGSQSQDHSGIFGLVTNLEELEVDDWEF
Chain of LKB1 (Q9Y376 whole entry partner): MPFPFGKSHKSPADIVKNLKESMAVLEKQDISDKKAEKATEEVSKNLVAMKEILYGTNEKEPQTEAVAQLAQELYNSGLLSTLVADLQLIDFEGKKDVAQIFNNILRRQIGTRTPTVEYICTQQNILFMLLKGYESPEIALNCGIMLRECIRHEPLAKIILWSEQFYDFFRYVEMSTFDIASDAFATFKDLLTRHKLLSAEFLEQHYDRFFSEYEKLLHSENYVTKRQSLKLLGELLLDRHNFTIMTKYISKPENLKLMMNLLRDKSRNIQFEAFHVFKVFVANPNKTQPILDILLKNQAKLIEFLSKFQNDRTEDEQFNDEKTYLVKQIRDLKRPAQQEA
Chain of NEK7 (Q8TDX7 whole entry): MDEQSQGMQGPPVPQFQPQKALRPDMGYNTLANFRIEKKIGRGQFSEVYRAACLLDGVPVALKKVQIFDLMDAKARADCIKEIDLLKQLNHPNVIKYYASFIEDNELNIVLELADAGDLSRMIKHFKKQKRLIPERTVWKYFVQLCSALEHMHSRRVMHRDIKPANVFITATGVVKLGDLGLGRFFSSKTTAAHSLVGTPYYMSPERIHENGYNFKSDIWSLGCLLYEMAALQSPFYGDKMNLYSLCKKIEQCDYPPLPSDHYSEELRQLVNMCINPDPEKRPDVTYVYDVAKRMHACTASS

For `CN1CCN(Cc2ccc(Nc3ncc(Cl)c(Nc4ccccc4S(=O)(=O)N(C)C)n3)cc2)CC1` [TP-0903], the inhibition at 0.1 µM at AurA (setting [3]) is 58.2%; at AurA (setting [4]), 59.4%; on DNAPK (EHPFLVKGGEDLR) it was 11.7%; at DNAPK (KGGSWIQEINVAEK), 8.3%; at Erk1, -2.8%; on GCN2 domain2 (setting [3]), -22.2%. Also, the inhibition at 0.1 µM on GCN2 domain2 (setting [4]) was -33.5%; on ILK (setting [3]), 6.4%; at ILK (Protein Kinase Domain, read-out: Inhibition vs DMSO), -1.3%; on LKB1, 18.2%; at NEK7, -26%; at ZAK, 7.6%. The inhibition at 0.1 µM against MAP3K1 stood at 57.6%. In addition, the “Inhibition vs DMSO” value at JAK1 domain2 (Activation Loop) is given as -23.7%; at JAK1 domain2 (Lys1), -597.8%; on LATS2 (Lys1), 7.9%; on LATS2 (Lys2), -14.6%; in experiment [1], 15.9%. Besides, in experiment [2], the Inhibition is 17.4%.

(Values after PMC7714403 (JCI Insight, 2020).)
